Measured values reported in US10849918B2, “Composition for optic nerve protection” (TOHOKU TECHNO ARCH CO., LTD., priority 2015, dated 2020).

Tested on: retinal ganglion cells
Assay: Test 2: optic nerve protection in optic nerve crush injury murine model, oral administration
Type: in vivo, mice
Details: summary statement; oral or intraocular administration, optic nerve crush injury model and NMDA model
Description: The nerve protection effect of each ingredient was verified by using a rodent glaucoma pathological model of an optic nerve crush injury murine model.
Test animal: male C57BL/6 strain mice, 9-12 weeks old, each approximately 25 g
The experiment was conducted according to the following method. The number of samples in each group was 8.
(2) To the mice in the experimental groups, each ingredient prepared as shown in Table 2 was orally administered at a dosage as shown in Table 2 once a day from one week before the optic nerve crush treatment; to the mice in the control groups, 100 μL of distilled water or phosphate-buffered saline (containing no Ca or Mg, pH: 7.4, hereinafter abbreviated as “PBS(−)”) was administered likewise.
(3) The optic nerve crush treatment on the mice was performed under anesthesia by administering ketamine (100 mg/kg) and xylazine (5 mg/kg). The optic nerve crush treatment was performed on only single eyes, and the fellow eyes were untreated. After the optic nerve crush treatment was completed, an antibacterial ophthalmic ointment was instilled to the eyes of the mice. […]
(7) The number of cells labeled with Fluoro-Gold was counted to obtain an average number at the 12 sites. […]

COc1ccc([C@@H]2CC(=O)c3c(O)cc(O[C@@H]4O[C@H](CO[C@@H]5O[C@@H](C)[C@H](O)[C@@H](O)[C@H]5O)[C@@H](O)[C@H](O)[C@H]4O)cc3O2)cc1O [hesperidin]
protection effect on the death of retinal ganglion cells: excellent protection effect on the death of retinal ganglion cells
